pEC50: −log10 of the molar value.

For data set [1], the system named is recombinant NL4-3 virus (Renilla luciferase) in MT-2 cells. In words: HIV cell culture assay (antiviral activity, luciferase readout). Format: cell-based. Conditions: Renilla, NL43. Put shortly: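 MT-2 cells were infected with recombinant NL4-3 virus carrying Renilla luciferase in place of part of nef. Cells were cultured 4–5 days with serially diluted compound, and luciferase was measured with a live-cell substrate. EC50 was calculated from the median effect equation.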

A short description of data set [2]: Compound cytotoxicity, XTT-based colorimetric assay. Format: cell-based. Conditions: human; uninfected MT2 cells, day 4, XTT. Put shortly: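 Run under the antiviral-assay protocol but without virus. Viability was read on day 4 and CC50 values were derived from the readout.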

With `Cc1ccc(-n2c([C@H](Cc3cc(F)cc(F)c3)NC(=O)Cn3nc(C(F)F)c4c3C(F)(F)[C@@H]3C[C@H]43)nc3cc(-c4ccccc4N(C)S(C)(=O)=O)ccc3c2=O)c2c1c(NS(=O)(=O)C1CC1)nn2CC(F)F` (atropisomer, axis not shown) [Example 145, N-[(1S)-1-{3-[3-cyclopropanesulfonamido-1-(2,2-difluoroethyl)-4-methyl-1H-indazol-7-yl]-7-[2-(N-methylmethanesulfonamido)phenyl]-4-oxo-3,4-dihydroquinazolin-2-yl}-2-(3,5-difluorophenyl)ethyl]-2-[(2S,4R)-9-(difluoromethyl)-5,5-difluoro-7,8-diazatricyclo[4.3.0.0^2,^4]nona-1(6),8-dien-7-yl]acetamide], the negative logarithm of the EC50 (pEC50) in data set [1] is 9.17. The same molecule had a CC50 at 4 days in data set [2] of over 500 nM.
For `COc1cnc(-c2ccc3c(=O)n(-c4ccc(Cl)c5c(NS(C)(=O)=O)nn(C)c45)c([C@H](Cc4cc(F)cc(F)c4)NC(=O)Cn4nc(C(F)F)c5c4C(F)(F)[C@@H]4C[C@H]54)nc3c2)nc1` (atropisomer, axis not shown; (P)) [Example 34, N—((S)-1-((3P)-3-(4-chloro-1-methyl-3-(methylsulfonamido)-1H-indazol-7-yl)-7-(5-methoxypyrimidin-2-yl)-4-oxo-3,4-dihydroquinazolin-2-yl)-2-(3,5-difluorophenyl)ethyl)-2-((3bS,4aR)-3-(difluoromethyl)-5,5-difluoro-3b,4,4a,5-tetrahydro-1H-cyclopropa[3,4]cyclopenta[1,2-c]pyrazol-1-yl)acetamide], the negative logarithm of the EC50 (pEC50) in data set [1] is 10.24. Besides, in data set [2], the CC50 at 4 days is over 500 nM.
For `Cn1nc(NS(C)(=O)=O)c2c(Cl)ccc(-n3c([C@H](Cc4cc(F)cc(F)c4)NC(=O)Cn4nc(C(F)F)c5c4C(F)(F)[C@@H]4C[C@H]54)nc4cc(-c5nccnc5C5CC5)ccc4c3=O)c21` (atropisomer, axis not shown; (P)) [Example 61, N—((S)-1-((3P)-3-(4-chloro-1-methyl-3-(methylsulfonamido)-1H-indazol-7-yl)-7-(3-cyclopropylpyrazin-2-yl)-4-oxo-3,4-dihydroquinazolin-2-yl)-2-(3,5-difluorophenyl)ethyl)-2-((3bS,4aR)-3-(difluoromethyl)-5,5-difluoro-3b,4,4a,5-tetrahydro-1H-cyclopropa[3,4]cyclopenta[1,2-c]pyrazol-1-yl)acetamide], the negative logarithm of the EC50 (pEC50) in data set [1] is 9.80. Moreover, the half-maximal cytotoxic concentration (CC50) at 4 days in data set [2] was over 500 nM.
The corresponding values for `Cn1nc(NS(C)(=O)=O)c2c(Cl)ccc(-n3c([C@H](Cc4cc(F)cc(F)c4)NC(=O)Cn4nc(C(F)F)c5c4C(F)(F)[C@@H]4C[C@H]54)nc4cc(-c5nccc(C(F)F)n5)ccc4c3=O)c21` (atropisomer, axis not shown; (P)) [Example 56, N—((S)-1-((3P)-3-(4-chloro-1-methyl-3-(methylsulfonamido)-1H-indazol-7-yl)-7-(4-(difluoromethyl)pyrimidin-2-yl)-4-oxo-3,4-dihydroquinazolin-2-yl)-2-(3,5-difluorophenyl)ethyl)-2-((3bS,4aR)-3-(difluoromethyl)-5,5-difluoro-3b,4,4a,5-tetrahydro-1H-cyclopropa[3,4]cyclopenta[1,2-c]pyrazol-1-yl)acetamide] are 10.25 and over 500 nM.
For the molecule `COc1ncc(-c2ccc3c(=O)n(-c4ccc(Cl)c5c(NS(=O)(=O)C6CC6)nn(CC(F)F)c45)c([C@H](Cc4cc(F)cc(F)c4)NC(=O)Cn4nc(C(F)F)c5c4C(F)(F)[C@@H]4C[C@H]54)nc3c2)cn1` (atropisomer, axis not shown) [Example 99], the pEC50 in data set [1] is 10.05. Moreover, the cytotoxic concentration (CC50) at 4 days in data set [2] was over 500 nM.
The corresponding values for `Cc1ccc(-n2c([C@H](Cc3cc(F)cc(F)c3)NC(=O)Cn3nc(C(F)F)c4c3C(F)(F)[C@@H]3C[C@H]43)nc3cc(-c4ccccc4S(=O)(=O)C(C)(C)C)ccc3c2=O)c2c1c(NS(=O)(=O)C1CC1)nn2CC(F)F` (atropisomer, axis not shown) [Example 142, N-[(1S)-1-{3-[3-cyclopropanesulfonamido-1-(2,2-difluoroethyl)-4-methyl-1H-indazol-7-yl]-7-[2-(2-methylpropane-2-sulfonyl)phenyl]-4-oxo-3,4-dihydroquinazolin-2-yl}-2-(3,5-difluorophenyl)ethyl]-2-[(2S,4R)-9-(difluoromethyl)-5,5-difluoro-7,8-diazatricyclo[4.3.0.0^2,^4]nona-1(6),8-dien-7-yl]acetamide] are 9.42 and over 500 nM.
The corresponding values for `CCc1ccnc(-c2ccc3c(=O)n(-c4ccc(Cl)c5c(NS(C)(=O)=O)nn(C)c45)c([C@H](Cc4cc(F)cc(F)c4)NC(=O)Cn4nc(C(F)F)c5c4C(F)(F)[C@@H]4C[C@H]54)nc3c2)n1` (atropisomer, axis not shown; (P)) [Example 43, N—((S)-1-((3P)-3-(4-chloro-1-methyl-3-(methylsulfonamido)-1H-indazol-7-yl)-7-(4-ethylpyrimidin-2-yl)-4-oxo-3,4-dihydroquinazolin-2-yl)-2-(3,5-difluorophenyl)ethyl)-2-((3bS,4aR)-3-(difluoromethyl)-5,5-difluoro-3b,4,4a,5-tetrahydro-1H-cyclopropa[3,4]cyclopenta[1,2-c]pyrazol-1-yl)acetamide] are 10.24 and over 500 nM.
Consider `Cc1ncnc(C)c1-c1ccc2c(=O)n(-c3ccc(Cl)c4c(NS(C)(=O)=O)nn(C)c34)c([C@H](Cc3cc(F)cc(F)c3)NC(=O)Cn3nc(C(F)F)c4c3C(F)(F)[C@@H]3C[C@H]43)nc2c1` (atropisomer, axis not shown; (P)) [Example 40, N—((S)-1-((3P)-3-(4-chloro-1-methyl-3-(methylsulfonamido)-1H-indazol-7-yl)-7-(4,6-dimethylpyrimidin-5-yl)-4-oxo-3,4-dihydroquinazolin-2-yl)-2-(3,5-difluorophenyl)ethyl)-2-((3bS,4aR)-3-(difluoromethyl)-5,5-difluoro-3b,4,4a,5-tetrahydro-1H-cyclopropa[3,4]cyclopenta[1,2-c]pyrazol-1-yl)acetamide], for which, in data set [1], the negative logarithm of the EC50 (pEC50) was 10.28. The molecule also yielded a CC50 at 4 days in data set [2] of over 500 nM.
As to `CCc1cc(CC)nc(-c2ccc3c(=O)n(-c4ccc(Cl)c5c(NS(C)(=O)=O)nn(C)c45)c([C@H](Cc4cc(F)cc(F)c4)NC(=O)Cn4nc(C(F)F)c5c4C(F)(F)[C@@H]4C[C@H]54)nc3c2)n1` (atropisomer, axis not shown; (P)) [Example 38, N—((S)-1-((3P)-3-(4-chloro-1-methyl-3-(methylsulfonamido)-1H-indazol-7-yl)-7-(4,6-diethylpyrimidin-2-yl)-4-oxo-3,4-dihydroquinazolin-2-yl)-2-(3,5-difluorophenyl)ethyl)-2-((3bS,4aR)-3-(difluoromethyl)-5,5-difluoro-3b,4,4a,5-tetrahydro-1H-cyclopropa[3,4]cyclopenta[1,2-c]pyrazol-1-yl)acetamide], the pEC50 in data set [1] was 9.68. In data set [2], this molecule returned a CC50 at 4 days of over 500 nM.
For the molecule `Cc1ccc(-c2ccc3c(=O)n(-c4ccc(Cl)c5c(NS(=O)(=O)C6CC6)nn(CC(F)F)c45)c([C@H](Cc4cc(F)cc(F)c4)NC(=O)Cn4nc(C(F)F)c5c4C(F)(F)[C@@H]4C[C@H]54)nc3c2)nn1` (atropisomer, axis not shown; (P)) [Example 88, N—((S)-1-((3P)-3-(4-chloro-3-(cyclopropanesulfonamido)-1-(2,2-difluoroethyl)-1H-indazol-7-yl)-7-(6-methylpyridazin-3-yl)-4-oxo-3,4-dihydroquinazolin-2-yl)-2-(3,5-difluorophenyl)ethyl)-2-((3bS,4aR)-3-(difluoromethyl)-5,5-difluoro-3b,4,4a,5-tetrahydro-1H-cyclopropa[3,4]cyclopenta[1,2-c]pyrazol-1-yl)acetamide], in data set [1], the negative logarithm of the EC50 (pEC50) is 10.24. This molecule gave a CC50 at 4 days in data set [2] of over 500 nM.
As to `CS(=O)(=O)Nc1nn(CC(F)F)c2c(-n3c([C@H](Cc4cc(F)cc(F)c4)NC(=O)Cn4nc(C(F)F)c5c4C(F)(F)[C@@H]4C[C@H]54)nc4cc(-c5nccc(C(F)(F)F)n5)ccc4c3=O)ccc(Cl)c12` (atropisomer, axis not shown) [Example 128, N-[(1S)-1-{3-[4-chloro-1-(2,2-difluoroethyl)-3-methanesulfonamido-1H-indazol-7-yl]-4-oxo-7-[4-(trifluoromethyl)pyrimidin-2-yl]-3,4-dihydroquinazolin-2-yl}-2-(3,5-difluorophenyl)ethyl]-2-[(2S,4R)-9-(difluoromethyl)-5,5-difluoro-7,8-diazatricyclo[4.3.0.0^2,^4]nona-1(6),8-dien-7-yl]acetamide], the pEC50 in data set [1] was 10.10. Further, the CC50 at 4 days in data set [2] was over 500 nM.
The corresponding values for `Cc1cc(C)c(C(F)(F)F)c(-c2ccc3c(=O)n(-c4ccc(Cl)c5c(NS(C)(=O)=O)nn(C)c45)c([C@H](Cc4cc(F)cc(F)c4)NC(=O)Cn4nc(C(F)F)c5c4C(F)(F)[C@@H]4C[C@H]54)nc3c2)n1` (atropisomer, axis not shown; (P)) [Example 52, N—((S)-1-((3P)-3-(4-chloro-1-methyl-3-(methylsulfonamido)-1H-indazol-7-yl)-7-(4,6-dimethyl-3-(trifluoromethyl)pyridin-2-yl)-4-oxo-3,4-dihydroquinazolin-2-yl)-2-(3,5-difluorophenyl)ethyl)-2-((3bS,4aR)-3-(difluoromethyl)-5,5-difluoro-3b,4,4a,5-tetrahydro-1H-cyclopropa[3,4]cyclopenta[1,2-c]pyrazol-1-yl)acetamide] are 9.32 and over 500 nM.
